The record followed here is ChEMBL document CHEMBL3045223, “Synthesis, nematicidal and antimicrobial properties of Bis-[4-methoxy-3-[3-(4-fluorophenyl)-6-(4-methylphenyl)-2(aryl)-tetrahydro-2H-pyrazolo[3,4-d]thiazol-5-yl]phenyl]methanes” (2009).

Assay type in all cases: functional
The test system of assay [1] is Ditylenchus myceliophagus. Briefly: Nematicidal activity against Ditylenchus myceliophagus assessed as immobility. The conditions noted are these: read-out: LD50 (the source's name).
Another assay concerns Caenorhabditis elegans. As to the kind of experiment: Nematicidal activity against Caenorhabditis elegans assessed as immobility. The conditions noted are these: read-out: LD50 (the source's name).
In assay [2] the test system is Lysinibacillus sphaericus. Briefly: Antibacterial activity against Lysinibacillus sphaericus MTCC 11 assessed as growth arrest at 37 degC for 24 hr. The note with it: MTCC 11, 24 h.
In assay [3] the test system is Lysinibacillus sphaericus. Briefly: Antibacterial activity against Lysinibacillus sphaericus MTCC 11 assessed as inhibition zones at 300 ug/disk at 37 degC for 24 hr. The note with it: MTCC 11, 24 h, read-out: IZ.
Assay [4] has as its system Candida albicans. Briefly: Antifungal activity against Candida albicans ATCC 10231 assessed as growth inhibition at 300 ug/disk at 37 degC for 48 hr. The note with it: ATCC 10231, 48 h, read-out: IZ.
For assay [5], the system named is Trichophyton mentagrophytes. As to the kind of experiment: Antifungal activity against Trichophyton mentagrophytes IFO 40996 assessed as growth inhibition at 300 ug/disc at 37 degC for 48 hr. The conditions noted are these: IFO 40996, 48 h, read-out: IZ.
The subject of assay [6] is Trichophyton rubrum. Briefly: Antifungal activity against Trichophyton rubrum IFO 9185 assessed as growth inhibition at 37 degC for 48 hr.
The test system of assay [7] is Aspergillus fumigatus. As to the kind of experiment: Antifungal activity against Aspergillus fumigatus HIC 6094 assessed as growth inhibition at 37 degC for 48 hr. The conditions noted are these: HIC 6094, 48 h.
Assay [8] concerns Pseudomonas aeruginosa. Briefly: Antibacterial activity against Pseudomonas aeruginosa MTCC 741 assessed as inhibition zones at 300 ug/disk at 37 degC for 24 hr. The conditions noted are these: MTCC 741, 24 h, read-out: IZ.
Assay [9] concerns Trichophyton mentagrophytes. As to the kind of experiment: Antifungal activity against Trichophyton mentagrophytes IFO 40996 assessed as growth inhibition at 37 degC for 48 hr. The conditions noted are these: IFO 40996, 48 h.
In assay [10] the test system is Pseudomonas aeruginosa. As to the kind of experiment: Antibacterial activity against Pseudomonas aeruginosa MTCC 741 assessed as growth arrest at 37 degC for 24 hr. The note with it: MTCC 741, 24 h.
Assay [11] concerns Aspergillus fumigatus. Briefly: Antifungal activity against Aspergillus fumigatus HIC 6094 assessed as growth inhibition at 300 ug/disc at 37 degC for 48 hr.
Assay [12] relates to Klebsiella aerogenes. Briefly: Antibacterial activity against Enterobacter aerogenes MTCC 39 assessed as growth arrest at 37 degC for 24 hr. The note with it: MTCC 39, 24 h.
The test system of assay [13] is Candida albicans. Briefly: Antifungal activity against Candida albicans ATCC 10231 assessed as growth inhibition at 37 degC for 48 hr. The note with it: ATCC 10231, 48 h.
The subject of assay [14] is Chromobacterium violaceum. Briefly: Antibacterial activity against Chromobacterium violaceum MTCC 2656 assessed as growth arrest at 37 degC for 24 hr. The note with it: MTCC 2656, 24 h.
The subject of assay [15] is Bacillus subtilis. As to the kind of experiment: Antibacterial activity against Bacillus subtilis MTCC 441 assessed as growth arrest at 37 degC for 24 hr. The note with it: MTCC 441, 24 h.
Assay [16] deals with Klebsiella aerogenes. Briefly: Antibacterial activity against Enterobacter aerogenes MTCC 39 assessed as inhibition zones at 300 ug/disk at 37 degC for 24 hr. The conditions noted are these: MTCC 39, 24 h, read-out: IZ.
Assay [17] relates to Staphylococcus aureus. As to the kind of experiment: Antibacterial activity against Staphylococcus aureus MTCC 96 assessed as growth arrest at 37 degC for 24 hr. The note with it: MTCC 96, 24 h.
The subject of assay [18] is Trichophyton rubrum. Briefly: Antifungal activity against Trichophyton rubrum IFO 9185 assessed as growth inhibition at 300 ug/disk at 37 degC for 48 hr. The conditions noted are these: IFO 9185, 48 h, read-out: IZ.
The subject of assay [19] is Staphylococcus aureus. As to the kind of experiment: Antibacterial activity against Staphylococcus aureus MTCC 96 assessed as inhibition zones at 300 ug/disc at 37 degC for 24 hr. The conditions noted are these: MTCC 96, 24 h, read-out: IZ.
The test system of assay [20] is Chromobacterium violaceum. Briefly: Antibacterial activity against Chromobacterium violaceum MTCC 2656 assessed as inhibition zones at 300 ug/disk at 37 degC for 24 hr. The note with it: MTCC 2656, 24 h, read-out: IZ.
Assay [21] concerns Bacillus subtilis. As to the kind of experiment: Antibacterial activity against Bacillus subtilis MTCC 441 assessed as inhibition zones at 300 ug/disk at 37 degC for 24 hr. The note with it: MTCC 441, 24 h, read-out: IZ.

Values after ≈ are worked out from the molar mass of the structure shown. Active and inactive are the calls of the source.

`CNC(=O)O/N=C(\SC)C(=O)N(C)C` [OXAMYL]: the LC50 in assay [1] was 150 mg/L (≈ 684 µM); in the assay on Caenorhabditis elegans it was 180 mg/L (≈ 821 µM).
On to `COc1ccc(Cc2ccc(OC)c(C3SC4C(=NN(C(C)C)C4c4ccc(F)cc4)N3c3ccc(Cl)cc3)c2)cc1C1SC2C(=NN(C(C)C)C2c2ccc(F)cc2)N1c1ccc(Cl)cc1` (stereo unspecified), for which the MBC in [2] came to 50 mg/L (≈ 51.2 µM); with Aspergillus fumigatus [7] it was 25 mg/L (≈ 25.6 µM); in [9], 50 mg/L (≈ 51.2 µM); in the assay with Pseudomonas aeruginosa [10] it was 25 mg/L (≈ 25.6 µM); with Klebsiella aerogenes [12] it was 50 mg/L (≈ 51.2 µM); in the assay with Candida albicans [13], 25 mg/L (≈ 25.6 µM). In addition, the MBC (in assay [14]; in the assay on Bacillus subtilis [15]; in the assay on Staphylococcus aureus [17]) was 25 mg/L (≈ 25.6 µM) throughout. Further, the MIC (commonly the smallest concentration in the dilution series that meets the test's criterion for growth inhibition) worked out at 25 mg/L (≈ 25.6 µM) in assay [2]; 25 mg/L (≈ 25.6 µM) in the assay with Aspergillus fumigatus [7]; 25 mg/L (≈ 25.6 µM) in assay [9]; 25 mg/L (≈ 25.6 µM) in the assay with Pseudomonas aeruginosa [10]; 25 mg/L (≈ 25.6 µM) in the assay on Klebsiella aerogenes [12]; 12.5 mg/L (≈ 12.8 µM) in the assay on Candida albicans [13]. The minimal inhibitory concentration (MIC) (in assay [14]; in the assay on Bacillus subtilis [15]; with Staphylococcus aureus [17]) was 12.5 mg/L (≈ 12.8 µM) each time. The zone of inhibition at 300 µg/disc is 11 mm in assay [3]; 10 mm in the assay on Candida albicans [4]; 12 mm in assay [5]; 13 mm in the assay on Pseudomonas aeruginosa [8]; 20 mm with Klebsiella aerogenes [16]; 11 mm in the assay on Trichophyton rubrum [18]. Besides, the zone of inhibition at 300 µg/disc in the assay with Staphylococcus aureus [19] was found to be 13 mm; in assay [20], 16 mm; with Bacillus subtilis [21], 12 mm. For the same compound, the MBC result with Trichophyton rubrum [6] was “inactive”. Moreover, the MIC result in the assay on Trichophyton rubrum [6] was “inactive”. The “inhibition zone (IZ)” value in the assay with Aspergillus fumigatus [11] is “inactive”. In addition, the LC50 in assay [1] was 520 mg/L (≈ 533 µM); in the assay with Caenorhabditis elegans it was 670 mg/L (≈ 686 µM).
Take `COc1ccc(N2N=C3C(SC(c4cc(Cc5ccc(OC)c(C6SC7C(=NN(c8ccc(OC)cc8)C7c7ccc(F)cc7)N6c6ccc(C)cc6)c5)ccc4OC)N3c3ccc(C)cc3)C2c2ccc(F)cc2)cc1` (stereo unspecified): the MBC was found to be 50 mg/L (≈ 47 µM) in [2]; 12.5 mg/L (≈ 11.8 µM) in the assay with Trichophyton rubrum [6] (IFO 9185, 48 h); 50 mg/L (≈ 47 µM) in the assay with Aspergillus fumigatus [7]; 25 mg/L (≈ 23.5 µM) in [9]; 25 mg/L (≈ 23.5 µM) in the assay with Pseudomonas aeruginosa [10]; 25 mg/L (≈ 23.5 µM) with Klebsiella aerogenes [12]. Further, the MBC amounted to 25 mg/L (≈ 23.5 µM) in the assay with Candida albicans [13], 12.5 mg/L (≈ 11.8 µM) in assay [14], 25 mg/L (≈ 23.5 µM) in the assay on Bacillus subtilis [15] and 25 mg/L (≈ 23.5 µM) in the assay on Staphylococcus aureus [17]. Moreover, the MIC in assay [2] was 50 mg/L (≈ 47 µM); with Trichophyton rubrum [6] (IFO 9185, 48 h) it was 12.5 mg/L (≈ 11.8 µM); with Aspergillus fumigatus [7], 25 mg/L (≈ 23.5 µM); in assay [9], 12.5 mg/L (≈ 11.8 µM); in the assay with Pseudomonas aeruginosa [10] it was 12.5 mg/L (≈ 11.8 µM); in the assay with Klebsiella aerogenes [12] it was 25 mg/L (≈ 23.5 µM). Besides, the minimal inhibitory concentration (MIC) in the assay on Candida albicans [13] came to 25 mg/L (≈ 23.5 µM); in assay [14], 6.25 mg/L (≈ 5.88 µM); with Bacillus subtilis [15] it was 25 mg/L (≈ 23.5 µM); with Staphylococcus aureus [17], 25 mg/L (≈ 23.5 µM). The zone of inhibition at 300 µg/disc amounted to 15 mm in assay [3]; 9 mm with Candida albicans [4]; 12 mm in assay [5]; 18 mm with Pseudomonas aeruginosa [8]; 15 mm in the assay on Aspergillus fumigatus [11] (HIC 6094, 48 h, read-out: IZ); 20 mm with Klebsiella aerogenes [16]. The zone of inhibition at 300 µg/disc with Trichophyton rubrum [18] amounted to 13 mm; with Staphylococcus aureus [19] it was 26 mm; in [20] it was 17 mm; in the assay on Bacillus subtilis [21], 15 mm. The figures for the LC50 (in assay [1]; in the assay with Caenorhabditis elegans) were 950 mg/L (≈ 893 µM) and 870 mg/L (≈ 818 µM), respectively.
